Assay results from US9346761B2, “Arginine methyltransferase inhibitors and uses thereof” (Epizyme, Inc., priority 2013, dated 2016).

Key:
Full-length human PRMT3 = target: T1, Full-length human PRMT3 (Homo sapiens, UniProt O60678); assay: PRMT3 biochemical assay (3H-SAM Flashplate, peptide substrate)
T1 construct: GST-tagged PRMT3; made in house; host or cells: E. coli BL21(DE3) Gold (pGEX-KG)
Description: General Materials. S-adenosylmethionine (SAM), S-adenosylhomocysteine (SAH), bicine, Tween20, dimethylsulfoxide (DMSO), bovine skin gelatin (BSG),), isopropyl-β-D-thiogalactopyranoside (IPTG), and Tris(2-carboxyethyl)phosphine hydrochloride solution (TCEP) were purchased from Sigma-Aldrich at the highest level of purity possible. ^3H-SAM was purchase from American Radiolabeled Chemicals with a specific activity of 80 Ci/mmol. 384-well streptavidin Flashplates were purchased from PerkinElmer.
Substrates. Peptide containing the classic RMT substrate motif was synthesized with an N-terminal linker-affinity tag motif and a C-terminal amide cap by 21st Century Biochemicals. The peptide was purified by high-performance liquid chromatography (HPLC) to greater than 95% purity and confirmed by liquid chromatography mass spectrometry (LC-MS). The sequence was Biot-Ahx-[…]-amide (SEQ ID NO.:11).
Molecular Biology: : Full-length human PRMT3 (NM_005788.3) isoform 1 transcript clone was amplified from an HEK 293 cDNA library and subcloned into pGEX-KG (GE Life Sciences). The resulting construct encodes an N-terminal GST tag and a thrombin cleavage sequence ([…] […] […] […]) (SEQ ID NO.:12) fused directly to Cys 2 of PRMT3.
Protein Expression. E. coli (BL21(DE3) Gold, Stratagene) made competent by the CaCl2 method were transformed with the PRMT3 construct and ampicillin selection. Protein over-expression was accomplished by growing the PRMT3 expressing E. coli clone and inducing expression with 0.3 mM IPTG at 16° C. The culture was grown for 12 hours, harvested by centrifugation, and stored at −80° C. for purification.
Protein Purification. […] GST-tagged PRMT3 eluted with 25-400 mM phosphate in buffer C. Protein was concentrated and buffer was exchanged to 20 mM Tris, 150 mM NaCl, 5% glycerol, 5 mM β-mercaptoethanol, pH7.8 by ultrafiltration. The purity of recovered protein was 70%.
General Procedure for PRMT3 Enzyme Assays on Peptide Substrates. The assays were all performed in a buffer consisting of 20 mM Bicine (pH=7.6), 1 mM TCEP, 0.005% BSG, and 0.002% Tween 20, prepared on the day of use. Compounds in 100% DMSO (1 ul) were spotted into a polypropylene 384-well V-bottom plates (Greiner) using a Platemate Plus outfitted with a 384-channel head (Thermo Scientific). DMSO (1 ul) was added to Columns 11, 12, 23, 24, rows A-H for the maximum signal control and 1 ul of SAH, a known product and inhibitor of PRMT3, was added to columns 11, 12, 23, 24, rows I-P for the minimum signal control. A cocktail (40 ul) containing the PRMT3 enzyme was added by Multidrop Combi (Thermo-Fisher). The compounds were allowed to incubate with PRMT3 for 30 min at room temperature, then a cocktail (10 ul) containing SAM and peptide was added to initiate the reaction (final volume=51 ul). The final concentrations of the components were as follows: PRMT3 was 0.5 nM, ^3H-SAM was 100 nM, non-radiolabeled SAM was 1.8 uM, peptide was 330 nM, SAH in the minimum signal control wells was 1 mM, and the DMSO concentration was 2%. The assays were stopped by the addition of potassium chloride (10 ul) to a final concentration of 100 mM. 50 ul of the reaction in the 384-well polypropylene plate was then transferred to a 384-well Flashplate and the biotinylated peptides were allowed to bind to the streptavidin surface for at least 1 hour before being washed once with 0.1% Tween20 in a Biotek ELx405 plate washer. The plates were then read in a PerkinElmer TopCount plate reader to measure the quantity of ^3H-labeled peptide bound to the Flashplate surface, measured as disintegrations per minute (dpm) or alternatively, referred to as counts per minute (cpm).
Where dpm=disintegrations per minute, cmpd=signal in assay well, and min and max are the respective minimum and maximum signal controls.
Where top and bottom are the normally allowed to float, but may be fixed at 100 or 0 respectively in a 3-parameter fit. […]

[1] = target: T2, Full-length human PRMT1 isoform 1 (Homo sapiens, UniProt Q99873); assay: PRMT1 biochemical assay (3H-SAM Flashplate, peptide substrate)
T2 construct: GST-tagged PRMT1; made in house; host or cells: High Five insect cells (baculovirus, pFastBacI)
T2 sequence (Q99873 with tags, fused parts or gaps): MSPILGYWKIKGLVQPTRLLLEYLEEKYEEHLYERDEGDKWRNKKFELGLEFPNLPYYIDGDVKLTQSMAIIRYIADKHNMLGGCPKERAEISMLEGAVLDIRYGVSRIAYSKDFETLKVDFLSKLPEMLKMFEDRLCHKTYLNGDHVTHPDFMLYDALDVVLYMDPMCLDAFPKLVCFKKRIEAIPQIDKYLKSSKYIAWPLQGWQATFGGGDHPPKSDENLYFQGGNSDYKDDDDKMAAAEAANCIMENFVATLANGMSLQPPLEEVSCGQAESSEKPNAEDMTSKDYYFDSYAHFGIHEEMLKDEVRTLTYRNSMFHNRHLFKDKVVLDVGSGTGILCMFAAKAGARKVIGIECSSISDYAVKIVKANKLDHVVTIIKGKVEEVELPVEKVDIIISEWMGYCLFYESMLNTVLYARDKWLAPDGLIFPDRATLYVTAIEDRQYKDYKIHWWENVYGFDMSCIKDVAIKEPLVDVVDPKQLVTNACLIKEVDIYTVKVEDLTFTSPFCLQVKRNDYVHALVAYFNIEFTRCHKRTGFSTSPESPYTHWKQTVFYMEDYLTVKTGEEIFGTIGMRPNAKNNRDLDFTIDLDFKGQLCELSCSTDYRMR
In short: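 Tritiated methyl transfer from 3H-SAM onto biotinylated peptide, captured on streptavidin Flashplates and counted. Baculovirus-expressed GST-PRMT1 and compound were preincubated 30 min at room temperature in Bicine buffer pH 7.6. Cold SAM at 300 uM final ended the reaction.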

T1 sequence (O60678 with tags, fused parts or gaps): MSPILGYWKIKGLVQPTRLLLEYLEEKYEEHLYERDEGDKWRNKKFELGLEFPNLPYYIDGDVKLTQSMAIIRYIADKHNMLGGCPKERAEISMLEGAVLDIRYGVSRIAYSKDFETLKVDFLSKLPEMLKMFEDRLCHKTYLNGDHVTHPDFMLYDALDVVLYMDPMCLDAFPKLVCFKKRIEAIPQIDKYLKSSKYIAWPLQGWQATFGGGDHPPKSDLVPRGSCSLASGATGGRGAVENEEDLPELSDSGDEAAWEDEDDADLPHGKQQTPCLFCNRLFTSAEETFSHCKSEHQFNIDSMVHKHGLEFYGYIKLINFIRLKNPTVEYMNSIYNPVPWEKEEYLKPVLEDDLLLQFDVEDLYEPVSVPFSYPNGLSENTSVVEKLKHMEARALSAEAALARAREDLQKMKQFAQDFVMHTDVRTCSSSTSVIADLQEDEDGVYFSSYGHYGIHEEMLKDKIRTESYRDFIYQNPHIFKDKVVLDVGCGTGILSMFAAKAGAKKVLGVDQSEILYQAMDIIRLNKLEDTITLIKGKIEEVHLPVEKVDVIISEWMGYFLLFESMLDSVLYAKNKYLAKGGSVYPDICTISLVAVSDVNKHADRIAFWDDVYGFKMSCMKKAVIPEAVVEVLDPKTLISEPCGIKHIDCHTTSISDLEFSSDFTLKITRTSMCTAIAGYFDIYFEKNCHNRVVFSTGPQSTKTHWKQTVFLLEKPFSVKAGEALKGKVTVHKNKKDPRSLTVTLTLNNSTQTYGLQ

Compound | IC50 (Full-length human PRMT3) [µM] | IC50 [1] [µM]
COCCn1cc(CN(C)CCN)c(-c2ccc(F)cc2)n1 [Compound 5] | > 10 | 1.01 to 3
COCCn1ncc(CN(C)CCN)c1-c1ccc(F)cc1 [Compound 6] | > 10 | 3.01 to 10
CCn1ncc(CN(C)CCNC)c1-c1ccc(F)cc1 [Compound 7] | > 10 | 0.101 to 1
CCn1cc(CN(C)CCNC)c(-c2ccc(F)cc2)n1 [Compound 8] | > 10 | 1.01 to 3
CN(CCN)Cc1c[nH]nc1-c1ccc(Cl)cc1 [Compound 95] | 1.01 to 3 | < 0.1
CN(CCN)Cc1c[nH]nc1-c1ccc(OCC(F)(F)F)cc1 [Compound 96] | 3.01 to 10 | < 0.1
CC(C)Oc1ccc(-c2n[nH]cc2CN(C)CCN)cc1F [Compound 97] | 3.01 to 10 | < 0.1
CN(CCN)Cc1c[nH]nc1-c1ccc(C2CCOCC2)cc1 [Compound 98] | 0.101 to 1 | < 0.1
CN(CCN)Cc1c[nH]nc1-c1ccc(F)cc1F [Compound 99] | > 10 | < 0.1
CN(CCN)Cc1n[nH]cc1-c1ccc(C#N)cc1 [Compound 100] | 3.01 to 10 | < 0.1
CC(C)c1ccc(-c2c[nH]nc2CN(C)CCN)cc1 [Compound 101] | > 10 | < 0.1
CN(CCN)Cc1n[nH]cc1-c1ccc(Cl)cc1 [Compound 102] | 3.01 to 10 | < 0.1
CN(CCN)Cc1n[nH]cc1-c1ccc(C(F)(F)F)cc1 [Compound 103] | > 10 | < 0.1
CN(CCN)Cc1n[nH]cc1-c1ccc(C2CC2)cc1 [Compound 104] | > 10 | < 0.1
CN(CCN)Cc1n[nH]cc1-c1ccc(OC(F)(F)F)cc1 [Compound 105] | 3.01 to 10 | < 0.1
CN(CCN)Cc1c[nH]nc1-c1cc(F)ccc1Cl [Compound 106] | > 10 | 0.101 to 1
COc1ccc(-c2n[nH]cc2CN(C)CCN)c(F)c1 [Compound 107] | 3.01 to 10 | < 0.1
Cc1ccc(-c2n[nH]cc2CN(C)CCN)c(F)c1 [Compound 108] | 3.01 to 10 | < 0.1
COc1ccccc1-c1n[nH]cc1CN(C)CCN [Compound 109] | > 10 | 0.101 to 1
Cc1cc(C#N)ccc1-c1n[nH]cc1CN(C)CCN [Compound 110] | 3.01 to 10 | < 0.1

Compound | IC50 (Full-length human PRMT3) [µM] | IC50 [1] [µM]
CN(CCN)Cc1c[nH]nc1-c1cc(F)cc(F)c1 [Compound 111] | 3.01 to 10 | < 0.1
CC(=O)c1cccc(-c2n[nH]cc2CN(C)CCN)c1 [Compound 112] | 3.01 to 10 | < 0.1
CN(CCN)Cc1cnn(CC(O)CO)c1-c1ccc(F)cc1 (stereo not shown) [Compound 113] | > 10 | 1.01 to 3
CN(CCN)Cc1c[nH]nc1-c1ccc(OC2CC2)cc1 [Compound 114] | 3.01 to 10 | < 0.1
CC(O)c1ccc(-c2n[nH]cc2CN(C)CCN)cc1 (stereo not shown) [Compound 115] | 3.01 to 10 | < 0.1
CN(CCN)Cc1c[nH]nc1-c1ccc(C2CC2)cc1 [Compound 116] | 1.01 to 3 | < 0.1
CN(CCN)Cc1c[nH]nc1-c1ccc(C(F)(F)F)c(Cl)c1 [Compound 117] | 1.01 to 3 | < 0.1
CN(CCN)Cc1c[nH]nc1-c1ccc(Cl)c(F)c1 [Compound 118] | 1.01 to 3 | < 0.1
CN(CCN)Cc1n[nH]cc1-c1ccc(OC2CC2)cc1 [Compound 119] | 3.01 to 10 | < 0.1
CN(CCN)Cc1c[nH]nc1-c1cc(F)cc(Cl)c1 [Compound 121] | 1.01 to 3 | < 0.1
CN(CCN)Cc1c[nH]nc1-c1cccc(Cl)c1 [Compound 122] | 3.01 to 10 | < 0.1
CN(CCN)Cc1c[nH]nc1-c1cccc(Cl)c1F [Compound 123] | 3.01 to 10 | < 0.1
CN(CCN)Cc1c[nH]nc1-c1ccc(F)c(Cl)c1 [Compound 124] | 1.01 to 3 | < 0.1
COc1ccc(-c2n[nH]cc2CN(C)CCN)cc1Cl [Compound 125] | 3.01 to 10 | < 0.1
Cc1ccc(-c2n[nH]cc2CN(C)CCN)cc1Cl [Compound 126] | 1.01 to 3 | < 0.1
COc1cc(Cl)cc(-c2n[nH]cc2CN(C)CCN)c1 [Compound 127] | 3.01 to 10 | < 0.1
CN(CCN)Cc1cn(CC2CCOCC2)nc1-c1ccc(F)cc1 [Compound 128] | > 10 | 3.01 to 10
Cc1c(F)cccc1-c1n[nH]cc1CN(C)CCN [Compound 129] | 3.01 to 10 | 0.101 to 1
COc1cccc(-c2n[nH]cc2CN(C)CCN)c1 [Compound 130] | 3.01 to 10 | 0.101 to 1
Cc1cccc(-c2n[nH]cc2CN(C)CCN)c1 [Compound 131] | 3.01 to 10 | < 0.1

Compound | IC50 (Full-length human PRMT3) [µM] | IC50 [1] [µM]
CN(CCN)Cc1c[nH]nc1-c1ccc(Cl)cc1F [Compound 132] | 3.01 to 10 | < 0.1
Cc1cc(Cl)ccc1-c1n[nH]cc1CN(C)CCN [Compound 133] | 3.01 to 10 | < 0.1
COc1ccc(-c2n[nH]cc2CN(C)CCN)cc1F [Compound 134] | 3.01 to 10 | < 0.1
CN(CCN)Cc1c[nH]nc1-c1ccc(C(F)(F)F)cc1Cl [Compound 135] | > 10 | < 0.1
CCNC(=O)c1ccc(-c2n[nH]cc2CN(C)CCN)cc1 [Compound 136] | > 10 | < 0.1
CN(CCN)Cc1c[nH]nc1-c1cc(Cl)cc(Cl)c1 [Compound 137] | 3.01 to 10 | < 0.1
CN(CCN)Cc1n[nH]cc1-c1ccc(OC(F)F)cc1 [Compound 138] | > 10 | < 0.1
CN(CCN1CCCC1)Cc1c[nH]nc1-c1ccc(C#N)cc1 [Compound 139] | > 10 | > 10
CN(CCN)Cc1c[nH]nc1-c1ccccc1C#N [Compound 140] | 3.01 to 10 | 0.101 to 1
CN(CCN)Cc1c[nH]nc1-c1ccc(C(F)(F)F)c(F)c1 [Compound 141] | 3.01 to 10 | < 0.1
COc1cc(-c2n[nH]cc2CN(C)CCN)ccc1F [Compound 142] | 3.01 to 10 | < 0.1
CCN(CC)C(=O)c1ccc(-c2n[nH]cc2CN(C)CCN)cc1 [Compound 143] | 3.01 to 10 | 0.101 to 1
CC(C)Oc1ccc(-c2c[nH]nc2CN(C)CCN)cc1F [Compound 144] | > 10 | < 0.1
CN(CCN)Cc1n[nH]cc1-c1ccc(C2CCOCC2)cc1 [Compound 145] | 3.01 to 10 | < 0.1
COc1ccc(-c2n[nH]cc2CN(C)CCN)c(Cl)c1 [Compound 146] | 3.01 to 10 | < 0.1
CN(CCN)Cc1c[nH]nc1-c1cc(C#N)ccc1Cl [Compound 147] | > 10 | 1.01 to 3
CN(CCN)Cc1c[nH]nc1-c1ccc(C(F)(F)F)cc1F [Compound 148] | > 10 | 0.101 to 1
CN(CCN)Cc1c[nH]nc1-c1ccc2c(c1)NC(=O)CO2 [Compound 173] | – | 0.101 to 1
